Measurements published in PubChem BioAssay AID179 (DTP/NCI, 2004).
pEC50, pIC50: −log10 of the molar value. Calls of active or inactive are those of the source.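 Rule for the calls: active = compounds giving half or more protection of infected cells from virus-caused growth loss, again on retest; inactive = the rest.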 Where a SMILES comes first, the peptide text is derived from it. The star is where a group is joined. Boc = CC(C)(C)OC(=O)*

Test system: CEM cells HIV-1 protection, formazan growth assay
Assay: NCI AIDS Antiviral Assay
Settings: for pIC50: measured here: growth of uninfected CEM cells
How it was run: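 Protection of CEM cells against HIV-1 measured as cell growth via soluble formazan read-out, with five concentrations tested on both infected and uninfected cells; failure to protect may reflect toxicity.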

| Structure (SMILES) | outcome | pEC50 | pIC50 |
| --- | --- | --- | --- |
| COC(=O)c1c[nH]cc1CCCCc1c[nH]cc1C(=O)OC | inactive | – | – |
| COc1cc(-c2cc(=O)c3c(O)c(OC)c(OC)c(OC)c3o2)ccc1O | – | < 3.88 | 5.03 |
| CCOC(=O)c1[nH]n(-c2ccccc2)c(=O)c1/C=N/C(=S)N=Nc1c(O)[nH]c2ccccc12 | – | < 3.70 | < 4.00 |
| CCCCCCCCCCCCCCCCCCOCC(CCP(=O)(CP(=O)(O)O)Oc1ccccc1)OCCCCCCCCCCCCCCCCCC (stereo not given) | inactive | – | – |
| COc1cc2[nH]c(=O)[nH]c2c2c(C)c[nH]c12 | – | < 3.70 | < 3.70 |
| O=C(O)CCCCCCCCCCCCCCC(=O)O | – | < 4.74 | < 4.74 |
| CC(C)(C)OC(=O)NCC(C#N)CNC(=O)OC(C)(C)C | – | < 3.22 | < 3.22 |
| O=C(Cl)c1ccc([As](=O)(O)O)cc1 | – | < 3.70 | < 3.70 |
| CCCCCCCCCCCCCCNC1=C(OC)C(=O)C(NCCCCCCCCCCCCCC)=C(OC)C1=O | – | < 4.10 | < 4.10 |
| CC1=CC(N2C(=O)C(C)=CC2O)NC1=O (stereo not given) | inactive | – | – |
| CCn1c2ccccc2c2cc(N=C3C(=O)N(C)c4ccccc43)ccc21 | – | < 3.70 | 4.97 |
| Cc1nnc(NS(=O)(=O)c2ccc(N=NC3SC(=S)NC3=O)cc2)s1 (stereo not given) | – | < 3.70 | < 3.70 |
| CC(C)CCCC(C)[C@H]1CC[C@@H]2[C@H]3CC[C@H]4C[C@@H](CCC=C(c5cc(Cl)c(OCc6ccc([N+](=O)[O-])cc6)c(C(=O)OCc6ccc([N+](=O)[O-])cc6)c5)c5cc(Cl)c(OCc6ccc([N+](=O)[O-])cc6)c(C(=O)OCc6ccc([N+](=O)[O-])cc6)c5)CC[C@]4(C)[C@@H]3CC[C@]12C (stereo not given in full) | – | 4.63 | 4.14 |
| NCCCNCCNCCCN | – | < 3.70 | < 3.70 |
| COc1cccc(C(=O)O)c1Cc1cccc2ccccc12 | inactive | – | – |
| COc1cc(/C=C/c2nc(N)nnc2C)cc(OC)c1OC | – | < 3.70 | 5.55 |
| CCOC(=O)/C=C/CC(C)(C)CCOC(C)=O | – | < 3.70 | < 3.70 |
| O=C1C(c2ccccc2)=C2C(=C1c1ccccc1)c1cccc3cccc2c13 | inactive | – | – |
| Cc1cc(C)nc(NS(=O)(=O)c2ccc(Nc3c4ccccc4nc4c(C(=O)Nc5ccc(S(N)(=O)=O)cc5)cccc34)cc2)n1 | – | < 3.84 | < 3.84 |
| O=C(/C=C/c1ccccc1)CCN1CCCC1 | – | < 3.70 | 5.09 |
| COC(=O)C(Cl)=C1CC1 | – | < 2.77 | 4.03 |
| Nc1nnc2ccccn12 | – | < 3.01 | < 3.01 |

| Structure (SMILES) | outcome | pEC50 | pIC50 |
| --- | --- | --- | --- |
| N=C(N)c1ccc(N=NNc2ccc(C(=N)N)cc2)cc1 (tested in a mixture with another compound) | – | < 3.82 | 4.40 |
| CC(C)(C)CC1=CC(=C2C=C(CC(C)(C)C)C(=O)C(CC(C)(C)C)=C2)C=C(CC(C)(C)C)C1=O | – | < 4.81 | < 4.81 |
| NC(=O)CCNC(=O)c1ccc(NC(=O)c2ccccc2SC(=O)CCCC[n+]2ccccc2)cc1 | – | 4.73 | 4.34 |
| O=C(O)CN(CC(=O)O)Cc1cc(C#Cc2ccc(C#Cc3ccccc3)cc2)cc(CN(CC(=O)O)CC(=O)O)n1 | – | < 4.11 | 4.71 |
| [N-]=[N+]=NC1(Cc2ccccc2)C(=O)Nc2ccccc2C1=O (stereo not given) | – | < 3.70 | 3.98 |
| O=C(OCc1ccccc1)/C(c1ccccc1)=[N+]1/C(=S)Nc2ccc([N+](=O)[O-])cc21 | – | < 3.70 | 3.98 |
| C=C1SC(=Nc2cccc(OC)c2)N(c2nc(Cl)nc(Cl)n2)C12CCCCC2 | – | < 3.81 | 4.28 |
| C=CCNC(=S)N1c2ccccc2NC(=O)CC1C (stereo not given) | – | < 3.18 | < 3.18 |
| COc1ccc(C(O)/C(=N/N)c2nc3ccc(Cl)cc3[nH]c2=O)cc1 (stereo not given) | – | < 3.58 | 3.60 |
| c1cc2c3ccsc3c3sccc3c2s1 | – | < 3.70 | < 3.70 |
| CC(=O)N1CC(C)(C)c2c1cc(C)c(O)c2C | – | < 3.70 | 3.88 |
| COc1cccc2c1c1ccc3c(c1n2C)C(=O)C=CC3=O | – | < 4.75 | 5.15 |
| CN(C)c1ccc(/C=C/C(=O)[O-])cc1.CN(C)c1ccc(/C=C/C(=O)[O-])cc1.[Cu+2] | – | < 5.07 | < 5.07 |
| CCOC(=O)CN1C(=O)C(=O)N(c2ccc(OC)c3ccccc23)C1=O | – | < 3.70 | < 3.70 |
| C=CCOc1ccc(/C(N=Nc2ccc(C)cc2)=N/NC(=O)c2ccccc2)cc1OC | – | < 3.70 | 5.00 |
| O=c1c2ccccc2nc(-c2ccccc2)n1NC(=S)Nc1cccc(Cl)c1 | – | < 4.48 | < 4.48 |
| O=C(O)c1cc(N=Nc2ccc(N=Nc3ccc(S(=O)(=O)O)cc3)cc2)ccc1O | inactive | – | – |
| CCCCCCCCCCCCCCCCSS(C)(=O)=O | – | < 4.86 | 5.16 |
| CC(=O)NNc1nc(C)c(C(=O)NNC(=O)C(=O)Nc2ccc([N+](=O)[O-])cc2[N+](=O)[O-])s1 | – | < 3.69 | 4.42 |
| Nc1nc(Cl)cc(NCC2(O)CCCC2)n1 | – | < 3.70 | 3.78 |
| C=C=[CH][Sn]([c]1ccccc1)([c]1ccccc1)[c]1ccccc1 | – | < 4.45 | 6.17 |
| COC(=O)C1Cc2c([nH]c3ccccc23)C(c2ccccc2O)N1 (stereo not given) | inactive | – | – |

| Structure (SMILES) | outcome | pEC50 | pIC50 |
| --- | --- | --- | --- |
| COC(=O)c1oc(-c2ccccc2)c(-c2ccccc2)c1C(=O)OC | – | < 3.70 | 4.13 |
| [N-]=[N+]=NC1CC(n2cc(Cc3cccc(OCc4ccccc4)c3)c(=O)[nH]c2=O)OC1CO (stereo not given) | inactive | – | – |
| N.N.N.N.N.O=C([O-])CCl.[Co+3].[O-][Cl+3]([O-])([O-])[O-] | inactive | – | – |
| S=C(Nc1ccccc1)N(/N=C/C=C/c1ccccc1)c1nnc(-c2ccccc2)c(-c2ccccc2)n1 | – | < 4.15 | 4.36 |
| C=CC(C1=CC(=O)C(OC)=CC1=O)c1ccccc1 (stereo not given) | inactive | – | – |
| COc1ccc(NC/C=C/C(=C/COC(C)=O)OC(C)=O)cc1 | – | < 3.70 | 5.50 |
| Cc1cc([N+](=O)[O-])ccc1NC(=O)C(=O)C(C(=O)c1ccccc1-c1ccccc1)C1OC(=O)c2ccccc21 (stereo not given) | – | < 3.75 | 4.55 |
| CN1C=CC(C(C(N)=O)c2ccccc2)c2ccccc21 (stereo not given) | – | < 3.70 | 3.75 |
| CCOC(=O)/C(C#N)=C/c1ccc2c(c1)CC1(C2)Cc2cc(CC)c(C(C)O)cc2C1 (stereo not given) | – | < 3.70 | 5.44 |
| CO/N=C(\C)CCC#Cc1ccccc1C(=O)OC | – | < 3.70 | < 3.70 |
| O=C(NNc1nc2cc(F)ccc2n2cccc12)c1cnccn1 | – | < 3.70 | 5.46 |
| Nc1c(N2CCOCC2)c(=O)nc2[nH]/c(=C\c3ccccc3O)c(=O)n12 | – | < 3.70 | 4.01 |
| CCOC(=O)/N=C(\N)SCc1ccccc1 | inactive | – | – |
| COC1N(C2C=CC(CO)O2)C(=O)NC(=O)C1(C)I (stereo not given) | – | 6.56 | 5.11 |
| Cc1nc2ccc(S(=O)(=O)Nc3ccccc3Cl)cc2c(=O)n1NC(=O)CNc1ccccc1Cl | – | < 3.70 | 3.77 |
| CN1C(c2ccccc2)N1C (stereo not given) | – | < 2.77 | < 2.77 |
| O=c1c(O)c(-c2cc(O)c(O)c(O)c2)oc2cc(O)cc(O)c12 | – | < 3.55 | 4.86 |
| CCOC(=O)c1nn2c(nc1=O)sc1ccc3ccccc3c12 | – | < 4.16 | < 4.16 |
| CC(=O)Nc1ccc2c(c1)Cc1cc(N(CCO)CCO)ccc1-2 | – | < 3.70 | 4.13 |
| COC(=O)C(NC(=O)c1ccccc1)c1ccco1 (stereo not given) | – | < 3.02 | 3.32 |
| FC1(F)SC2CCCCCCCCCCC2C1(F)F (stereo not given) | – | < 3.70 | 4.04 |
| O=C1Nc2cnc(Cl)nc2Nc2ccccc21 | – | < 4.12 | < 4.12 |

| Structure (SMILES) | outcome | pEC50 | pIC50 |
| --- | --- | --- | --- |
| CC1(C)CC(=O)C2C(C1)OC1CC(C)(C)CC(=O)C1C2c1ccc2c(c1)OCO2 (stereo not given) | – | < 3.70 | 3.81 |
| CN(C)C1C(=O)C(C(=O)NCNCCC(=O)O)=C(O)C2(O)C(=O)C3=C(O)c4c(O)cccc4C(C)(O)C3CC12 (stereo not given) | – | < 4.95 | < 4.95 |
| C=CCN(CCNS(=O)(=O)c1ccc(C)cc1)S(=O)(=O)c1ccc(C)cc1 | – | < 4.48 | < 4.48 |
| COc1ccc(-c2c(C(C)=O)c(-c3ccccc3)n(C3OC(COC(C)=O)C(OC(C)=O)C(OC(C)=O)C3OC(C)=O)c(=S)c2C#N)cc1 (stereo not given) | – | < 3.70 | 3.91 |
| O=C(CCC(=O)c1ccsc1)c1ccsc1 | – | < 3.70 | < 3.70 |
| CNC(=O)CNC(=O)C(NC(=O)CNC(=O)C1CCCN1C(=O)C(C)NC(=O)C(NC(=O)OC(C)(C)C)C(C)C)C(C)C (stereo not given) (Boc-VAPGVG-NHMe; configuration not given here) | – | < 3.70 | < 3.70 |
| S=C1NCCO1 | – | < 3.70 | 3.98 |
| CCc1ccc(/C(C#N)=C/c2ccc(N(C)CCC#N)cc2)cc1 | – | < 3.70 | 5.45 |
| CCC12C=CCN3CC[C@@]4(c5cc([C@@]6(C(=O)OC)CC7CN(CCc8c6[nH]c6ccccc86)C[C@](O)(CC)C7)c(OC)cc5N(C)[C@H]4[C@]4(OCOC4=O)[C@@H]1O)C32 (stereo not given in full) | inactive | – | – |
| COc1ccc(-c2c(C#N)c(-c3ccccc3)n(NS(=O)(=O)c3ccccc3)c(=O)c2C#N)cc1 | – | < 3.70 | 4.35 |
| CCCCc1c2c(nc3c1CCc1cc4cc5c(nc4nc1-3)-c1nc3c(c(CCCC)c1CC5)CCC/C3=C\c1ccccc1)/C(=C/c1ccccc1)CCC2 | – | < 5.71 | < 5.71 |
| NCCCCNC(c1ccccc1)C(O)c1ccccc1 (stereo not given) | inactive | – | – |
| O=S1(=O)NNC(=NCc2ccc(Cl)c(Cl)c2)c2ccccc21 | inactive | – | – |
| COc1ccc(/C(=N/NC(=O)NN)C(c2ccc(OC)cc2)C2(O)CNc3c(Cl)cc(Cl)cc32)cc1 (stereo not given) | – | < 5.01 | < 5.01 |
| CCOP(=O)(OCC)/C(C#N)=C/c1cccn1N(C)C | – | < 3.59 | 3.61 |
| CN(C)Cc1cc(C(=O)/C=C/c2cccc(Cl)c2)cc(CN(C)C)c1O | inactive | – | – |
| Cc1ccc2sc3cc(=O)cc(C)c-3nc2c1 | – | < 4.97 | < 4.97 |
| CC(=O)OCC(C)(COC(C)=O)N1C(=O)C2C3c4ccccc4C(c4ccccc43)C2C1=O (stereo not given) | – | < 3.70 | < 3.70 |
| Cc1c2n(c(=O)[nH]c1=O)C1OC(CO)C(O2)C1O (stereo not given) | – | < 3.70 | < 3.70 |
